Data on 19 compounds can be found in patent publication US10562912B2 (C&C Research Laboratories, priority 2013, dated 2020).

What all share (format): cell-based
One assay addresses T1, STAT3 (Homo sapiens, UniProt P40763).
T1 construct: plasmid pSTAT3-TA-luc), which contains a stably operating STAT3 promoter; endogenous in cells
In words: STAT3 reporter gene assay (luciferase), LNCaP stable cell line (pSTAT3-TA-luc), IL-6 stimulation. A digest of the protocol:
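LNCaP cells stably carrying pSTAT3-TA-luc, in RPMI1640 with 3% DCC-FBS, were treated with compound and then stimulated with 10 ng/mL IL-6 for 24–48 h at 37 °C. Luciferase activity was measured in lysates. A parallel plate measured viability by CellTiter-Glo, with stimulated 0.1% DMSO wells as the positive control.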
(In general: A reporter such as luciferase makes a cellular process visible.)

A further assay concerns LNCaP. The assay is described as follows: Cell growth inhibition assay, prostate cancer cell line LNCaP (medium with 10 ng/mL IL-6). To be noted: Homo sapiens, medium supplemented with 10 ng/mL of IL-6, 10,000 cells/well.
The next assay relates to DU-145. The assay is described as follows: Cell growth inhibition assay, prostate cancer cell line DU-145. To be noted: Homo sapiens, DU-145 prostate cancer cell line. A digest of the protocol:
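Cancer cells, counted and seeded at 3,000 (DU-145, HCT116) or 5,000 (SW626) cells/well, received graded compound concentrations. Plates incubated 72–96 h at 37° C. with 5% CO2 were then assayed with CellTiter-Glo.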

A further assay has as its system HEL92.1.7. In words: Cell growth inhibition assay, blood cancer cell line HEL92.1.7. Conditions: Homo sapiens, HEL 92.1.7, HEL92.1.7 blood cancer cell line. A digest of the protocol: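 Cells were seeded at 3,000/well (HCT116, DU-145) or 5,000/well (SW626 and the others) and exposed to serial compound dilutions for 72 to 96 h at 37 °C under 5% CO2. Viability was read as CellTiter-Glo luminescence against 0.1% DMSO and cell-free wells.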

Molecules are shown by their SMILES. Where only a bound is given, the exact number is not on record here.

T1 sequence (P40763 whole entry): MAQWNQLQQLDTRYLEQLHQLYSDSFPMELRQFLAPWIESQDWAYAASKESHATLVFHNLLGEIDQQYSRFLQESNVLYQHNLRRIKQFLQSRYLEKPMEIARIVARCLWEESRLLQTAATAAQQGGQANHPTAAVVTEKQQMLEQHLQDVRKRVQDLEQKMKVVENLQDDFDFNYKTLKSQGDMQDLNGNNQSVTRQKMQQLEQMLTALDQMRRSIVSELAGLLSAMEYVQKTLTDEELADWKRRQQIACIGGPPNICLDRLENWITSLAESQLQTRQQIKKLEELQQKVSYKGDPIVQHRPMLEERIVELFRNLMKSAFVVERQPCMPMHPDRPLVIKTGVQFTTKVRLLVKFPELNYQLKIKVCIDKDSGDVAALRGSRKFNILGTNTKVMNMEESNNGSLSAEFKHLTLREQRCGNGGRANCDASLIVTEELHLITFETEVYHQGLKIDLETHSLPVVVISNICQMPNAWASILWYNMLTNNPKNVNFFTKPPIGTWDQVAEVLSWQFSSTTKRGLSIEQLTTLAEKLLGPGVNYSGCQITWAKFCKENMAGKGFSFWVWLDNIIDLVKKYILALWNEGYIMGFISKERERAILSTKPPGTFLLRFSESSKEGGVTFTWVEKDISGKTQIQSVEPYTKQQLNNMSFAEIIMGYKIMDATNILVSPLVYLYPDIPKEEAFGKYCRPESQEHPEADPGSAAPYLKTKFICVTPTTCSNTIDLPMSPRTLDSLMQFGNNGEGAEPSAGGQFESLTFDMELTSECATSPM

What is called IC50 is the point on the concentration scale where inhibition reaches its midpoint. Read a high IC50 as lower potency. As for `CC(C)Oc1cc(OC(F)(F)F)cc(C(C)(C)c2cc(I)cc(NC(=O)c3sc4ccc(NS(C)(=O)=O)cc4c3I)c2)c1` [Example 214, 3-iodo-N-(3-iodo-5-(2-(3-isopropoxy-5-(trifluoromethoxy)phenyl)propan-2-yl)phenyl)-5-(methylsulfonamido)benzo[b]thiophene-2-carboxamide], the IC50 at STAT3 is 0.17 µM; with LNCaP, 0.99 µM; with DU-145, 0.3 µM; in the assay on HEL92.1.7, more than 1.1 µM.
Regarding `CC(C)Oc1cc(OC(F)(F)F)cc(C(C)(C)c2cc(Cl)cc(NC(=O)c3cc4cc(N(C)S(C)(=O)=O)c(F)cc4s3)c2)c1` [Example 215, N-(3-chloro-5-(2-(3-isopropoxy-5-(trifluoromethoxy)phenyl)propan-2-yl)phenyl)-6-fluoro-5-(N-methylmethylsulfonamido)benzo[b]thiophene-2-carboxamide], the IC50 against STAT3 came out at 0.002 µM; with LNCaP it was 0.006 µM; in the assay on DU-145, 0.002 µM; with HEL92.1.7 it was 0.007 µM.
Take `CC(C)Oc1cc(OC(F)(F)F)cc(C(C)(C)c2cc(Cl)cc(N(C)C(=O)c3cc4cc(N(C)S(C)(=O)=O)c(F)cc4s3)c2)c1` [Example 216, N-(3-chloro-5-(2-(3-isopropoxy-5-(trifluoromethoxy)phenyl)propan-2-yl)phenyl)-6-fluoro-N-methyl-5-(N-methylmethylsulfonamido)benzo[b]thiophene-2-carboxamide]: the IC50 at STAT3 was 0.38 µM; in the assay with LNCaP, 1.1 µM; with DU-145 it was 0.3 µM; in the assay with HEL92.1.7, 0.95 µM.
Consider `CC(C)Oc1cc(OC(F)(F)F)cc(C(C)(C)c2cc(Cl)cc(NC(=O)c3cc4cc(N(CCN5CCOCC5)S(C)(=O)=O)c(F)cc4s3)c2)c1` [Example 217, N-(3-chloro-5-(2-(3-isopropoxy-5-(trifluoromethoxy)phenyl)propan-2-yl)phenyl)-6-fluoro-5-(N-(2-morpholinoethyl)methylsulfonamido)benzo[b]thiophene-2-carboxamide], for which the IC50 at STAT3 was 2.06 µM; in the assay on LNCaP it was more than 1.1 µM; in the assay with DU-145, 0.58 µM; in the assay with HEL92.1.7, more than 1.1 µM.
`CC(C)Oc1cc(OC(F)(F)F)cc(C(C)(C)c2cc(Cl)cc(N(CCN3CCOCC3)C(=O)c3cc4cc(N(CCN5CCOCC5)S(C)(=O)=O)c(F)cc4s3)c2)c1` [Example 218, N-(3-chloro-5-(2-(3-isopropoxy-5-(trifluoromethoxy)phenyl)propan-2-yl)phenyl)-6-fluoro-N-(2-morpholinoethyl)-5-(N-(2-morpholinoethyl)methylsulfonamido)benzo[b]thiophene-2-carboxamide]: the IC50 against STAT3 is more than 10 µM; with LNCaP, 7.7 µM; with DU-145, more than 1.1 µM; with HEL92.1.7, more than 1.1 µM.
Turning to `CC(C)Oc1cc(OC(F)(F)F)cc(C(C)(C)c2cc(Cl)cc(NC(=O)c3cc4cc(N(CCN(C)C)S(C)(=O)=O)c(F)cc4s3)c2)c1` [Example 219, N-(3-chloro-5-(2-(3-isopropoxy-5-(trifluoromethoxy)phenyl)propan-2-yl)phenyl)-5-(N-(2-(dimethylamino)ethyl)methylsulfonamido)-6-fluorobenzo[b]thiophene-2-carboxamide], the IC50 is 1.19 µM against STAT3, 0.19 µM with LNCaP, 0.18 µM with DU-145 and 0.9 µM with HEL92.1.7.
The matching figures for `CS(=O)(=O)Nc1cc2cc(C(=O)Nc3cc(Cl)cc(-c4ccc(F)cc4F)c3)sc2cc1F` [Example 322, N-(5-chloro-2′,4′-difluoro-[1,1′-biphenyl]-3-yl)-6-fluoro-5-(methylsulfonamido)benzo[b]thiophene-2-carboxamide]: 0.028 µM, 0.021 µM, 0.011 µM and 0.049 µM.
As for `CS(=O)(=O)Nc1ccc2sc(C(=O)Nc3cc(Cl)cc(-c4ccc(F)cc4F)c3)cc2c1` [Example 323, N-(5-chloro-2′,4′-difluoro-[1,1′-biphenyl]-3-yl)-5-(methylsulfonamido)benzo[b]thiophene-2-carboxamide], the IC50 on STAT3 turned out to be 0.11 µM; in the assay with LNCaP it was 0.063 µM; in the assay on DU-145 it was 0.035 µM; in the assay with HEL92.1.7, 0.097 µM.
The matching figures for `COc1cc(OC(F)(F)F)cc(-c2cc(Cl)cc(NC(=O)c3cc4cc(NS(C)(=O)=O)ccc4s3)c2)c1` [Example 324, N-(5-chloro-3′-methoxy-5′-(trifluoromethoxy)-[1,1′-biphenyl]-3-yl)-5-(methylsulfonamido)benzo[b]thiophene-2-carboxamide]: 0.53 µM, 0.48 µM, 0.4 µM and 0.83 µM.
As for `COc1cc(OC(F)(F)F)cc(-c2cc(Cl)cc(NC(=O)c3cc4cc(NS(C)(=O)=O)c(F)cc4s3)c2)c1` [Example 325, N-(5-chloro-3′-methoxy-5′-(trifluoromethoxy)-[1,1′-biphenyl]-3-yl)-6-fluoro-5-(methylsulfonamido)benzo[b]thiophene-2-carboxamide], the IC50 on STAT3 came to 0.24 µM; in the assay with LNCaP it was 0.16 µM; in the assay with DU-145, 0.15 µM; with HEL92.1.7, 0.39 µM.
Regarding `COc1cc(OC(F)(F)F)cc(-c2cc(Cl)cc(NC(=O)c3cc4cc(N(C)S(C)(=O)=O)c(F)cc4s3)c2)c1` [Example 326, N-(5-chloro-3′-methoxy-5′-(trifluoromethoxy)-[1,1′-biphenyl]-3-yl)-6-fluoro-5-(N-methylmethylsulfonamido)benzo[b]thiophene-2-carboxamide], the IC50 at STAT3 is 0.1 µM; in the assay on LNCaP it was 0.14 µM; with DU-145, 0.064 µM; with HEL92.1.7, 0.26 µM.
On to `O=C(Nc1cc(Cl)cc(-c2ccc(F)cc2F)c1)c1cc2cc(NS(=O)(=O)C3CCOC3)ccc2s1` (stereo not shown) [Example 327, N-(5-chloro-2′,4′-difluoro-[1,1′-biphenyl]-3-yl)-5-((tetrahydrofuran)-3-sulfonamido)benzo[b]thiophene-2-carboxamide], for which the IC50 against STAT3 is 0.041 µM; in the assay on LNCaP it was 0.088 µM; in the assay with DU-145 it was 0.034 µM; in the assay on HEL92.1.7, 0.082 µM.
With `COc1cc(OC(F)(F)F)cc(-c2cc(Cl)cc(NC(=O)c3cc4cc(NS(=O)(=O)C5CCOC5)ccc4s3)c2)c1` (stereo not shown) [Example 328, N-(5-chloro-3′-methoxy-5′-(trifluoromethoxy)-[1,1′-biphenyl]-3-yl)-5-((tetrahydrofuran)-3-sulfonamido)benzo[b]thiophene-2-carboxamide], the IC50 came to 0.34 µM against STAT3, 0.34 µM with LNCaP, 0.39 µM in the assay with DU-145 and 0.5 µM with HEL92.1.7.
In the case of `CN(c1cc2cc(C(=O)Nc3cc(Cl)cc(-c4ccc(F)cc4F)c3)sc2cc1F)S(C)(=O)=O` [Example 329, N-(5-chloro-2′,4′-difluoro-[1,1′-biphenyl]-3-yl)-6-fluoro-5-(N-methylmethylsulfonamido)benzo[b]thiophene-2-carboxamide], the IC50 at STAT3 was found to be 0.01 µM; in the assay with LNCaP, 0.008 µM; in the assay on DU-145 it was 0.004 µM; with HEL92.1.7, 0.009 µM.
Turning to `O=C(Nc1cc(Cl)cc(-c2ccc(F)cc2F)c1)c1cc2cc(NS(=O)(=O)C3CCOC3)c(F)cc2s1` (stereo not shown) [Example 330, N-(5-chloro-2′,4′-difluoro-[1,1′-biphenyl]-3-yl)-6-fluoro-5-((tetrahydrofuran)-3-sulfonamido)benzo[b]thiophene-2-carboxamide], the IC50 against STAT3 is 0.029 µM; in the assay on LNCaP, 0.011 µM; with DU-145, 0.005 µM; in the assay on HEL92.1.7, 0.057 µM.
Consider `CS(=O)(=O)Nc1ccc2sc(C(=O)Nc3cc(Br)cc(S(=O)(=O)N4CCc5ccc(F)cc5C4)c3)cc2c1` [Example 418, N-(3-bromo-5-((7-fluoro-3,4-dihydroisoquinolin-2(1H)-yl)sulfonyl)phenyl)-5-(methylsulfonamido)benzo[b]thiophene-2-carboxamide], for which the half-inhibitory concentration (IC50) against STAT3 came out at 0.84 µM; in the assay on LNCaP, 1.6 µM; in the assay with DU-145 it was 0.98 µM; in the assay on HEL92.1.7 it was 2.2 µM.
For the compound `CS(=O)(=O)Nc1ccc2sc(C(=O)Nc3cc(Br)cc(S(=O)(=O)N4CCc5c(F)cc(F)cc5C4)c3)cc2c1` [Example 419, N-(3-bromo-5-((5,7-difluoro-3,4-dihydroisoquinolin-2(1H)-yl)sulfonyl)phenyl)-5-(methylsulfonamido)benzo[b]thiophene-2-carboxamide], the IC50 at STAT3 worked out at 0.67 µM; in the assay with LNCaP, 1 µM; in the assay on DU-145 it was 0.65 µM; in the assay on HEL92.1.7, 1.8 µM.
As for `CS(=O)(=O)Nc1ccc2sc(C(=O)Nc3cc(Br)cc(S(=O)(=O)N4CCC(F)(F)CC4)c3)cc2c1` [Example 420, N-(3-bromo-5-((4,4-difluoropiperidin-1-yl)sulfonyl)phenyl)-5-(methylsulfonamido)benzo[b]thiophene-2-carboxamide], the IC50 on STAT3 is 0.82 µM; in the assay on LNCaP it was 1.7 µM; in the assay on DU-145, 0.95 µM; in the assay with HEL92.1.7, 2.4 µM.
`CC(C)Oc1cc(OC(F)(F)F)cc(C2(c3cc(Cl)cc(NC(=O)c4cc5cc(N(C)S(C)(=O)=O)c(F)cc5s4)c3)CC2)c1` [Example 430, N-(3-chloro-5-(1-(3-isopropoxy-5-(trifluoromethoxy)phenyl)cyclopropyl)phenyl)-6-fluoro-5-(N-methylmethylsulfonamido)benzo[b]thiophene-2-carboxamide]: the IC50 at STAT3 amounted to 0.012 µM; with LNCaP it was 0.006 µM; with DU-145, 0.006 µM; in the assay on HEL92.1.7, 0.014 µM.
